Measured values taken from patent publication US20240166626A1, “Compounds and Methods for Preventing, Treating, or Ameliorating Airway Disease” (THOMAS JEFFERSON UNIVERSITY, priority 2021, published 2024).

System: mouse airway tissue
Assay: Measurement of airway contractility in ex vivo mouse lung tissue slices
Procedure: FIGS. 4A-4F: DFPQ inhibits internalization of the β2AR and protects from agonist induced desensitization in cell and tissue models. FIG. 4A: Effect of DFPQ on agonist-promoted internalization of the β2AR. HEK 293 cells stably expressing FLAG-β2AR were pre-incubated with 0.1% DMSO or 10 μM DFPQ for 30 min and then stimulated with the indicated concentrations of ISO for up to 60 min. Cells were fixed and receptor surface expression was measured by ELISA. […] Cells were lysed and cAMP production was measured by ELISA. […] FIG. 4C: Mouse airway tissue were contracted with 1 μM methacholine for 5 min and then incubated overnight with 1 μM ISO±1 μM DFPQ. […] Airway contractility was measured by luminal area of bronchioles by microscopy at various times. […]
Cell culture GLOSENSOR™ cells (Promega) were maintained in Dulbecco's modified Eagle's medium (DMEM) containing 10% fetal bovine serum (FBS) and 200 μg/ml Hygromycin B. […]® ADRB2 cells (DiscoveRx) were maintained with the AssayComplete™ Cell Culture kit (DiscoveRx catalog #92-3107G). […] Cells were read every three minutes for 18 minutes on a PolarStar Optima plate reader (BMG) to establish peak signal. ISO was added to each well to a final concentration of 1 μM, and luminescence was determined in kinetic mode at room temperature (23-25° C.). […] Luminescence was determined at room temperature (23-25° C.) on a PolarStar Optima plate reader (BMG). […]

For `Fc1ccc(Nc2nc(NC3CCCCC3)c3ccccc3n2)cc1F` [DFPQ, N^4-cyclohexyl-N^2-(3,4-difluorophenyl)quinazoline-2,4-diamine], the “ISO mediated reversal of airway contraction on day 2” value (overnight 1 μM ISO + 1 μM DFPQ, relative to control, FIG. 4C) was “largely preserved” and the protection from desensitization (up to 25 minutes post ISO challenge on day 2, FIG. 4D) was “significant protection from desensitization”.
